Data published in ChEMBL document CHEMBL5584201, “Amphiphilic tribasic galactosamines potentiate rifampicin in Gram-negative bacteria at low Mg++/Ca++concentrations” (Bioorg Med Chem Lett, 2024).
≈ marks a conversion by molar mass, not a printed value. Calls of active or inactive are those of the source. The calls are words filed in the database; no cut-off is given here.

How the values were obtained:
Pseudomonas aeruginosa [1] = assay: Potentiation of rifampicin-induced antibacterial activity against Pseudomonas aeruginosa PAO1 assessed as fold change in rifampicin MIC in low salt containing media by Mueller-Hinton broth based assay; type: functional
Pseudomonas aeruginosa [2] = assay: Antibacterial activity against Pseudomonas aeruginosa PAO1 in low salt containing media by Mueller-Hinton broth based assay; type: functional
Acinetobacter baumannii [3] = assay: Potentiation of rifampicin-induced antibacterial activity against Acinetobacter baumannii ATCC 17978 assessed as fold change in rifampicin MIC in low salt containing media by Mueller-Hinton broth based assay; type: functional
Pseudomonas aeruginosa [4] = assay: Potentiation of rifampicin-induced antibacterial activity against Pseudomonas aeruginosa PAO1 assessed as rifampicin MIC in low salt containing media by Mueller-Hinton broth based assay; type: functional
Escherichia coli [5] = assay: Antibacterial activity against Escherichia coli ATCC 25922 in low salt containing media by Mueller-Hinton broth based assay; type: functional
Acinetobacter baumannii [6] = assay: Antibacterial activity against Acinetobacter baumannii ATCC 17978 in low salt containing media by Mueller-Hinton broth based assay; type: functional
Escherichia coli [7] = assay: Potentiation of rifampicin-induced antibacterial activity against Escherichia coli ATCC 25922 assessed as fold change in rifampicin MIC in low salt containing media by Mueller-Hinton broth based assay; type: functional
Escherichia coli [8] = assay: Potentiation of rifampicin-induced antibacterial activity against Escherichia coli ATCC 25922 assessed as rifampicin MIC in low salt containing media by Mueller-Hinton broth based assay; type: functional
Acinetobacter baumannii [9] = assay: Potentiation of rifampicin-induced antibacterial activity against Acinetobacter baumannii ATCC 17978 assessed as rifampicin MIC in low salt containing media by Mueller-Hinton broth based assay; type: functional
Acinetobacter baumannii [10] = assay: Potentiation of rifampicin-induced antibacterial activity against Acinetobacter baumannii 92247 assessed as rifampicin MIC at 2 to 8 microg/ml in high concentration of Ca++ and Mg++ containing media by Mueller-Hinton broth based assay; type: functional; conditions: dose 2-8 µg/ml
Escherichia coli [11] = assay: Antibacterial activity against Escherichia coli […] in high concentration of Ca++ and Mg++ containing media by Mueller-Hinton broth based assay; type: functional
Escherichia coli [12] = assay: Potentiation of rifampicin-induced antibacterial activity against Escherichia coli […] assessed as rifampicin MIC at 2 to 8 microg/ml in high concentration of Ca++ and Mg++ containing media by Mueller-Hinton broth based assay; type: functional; conditions: dose 2-8 µg/ml
Escherichia coli [13] = assay: Potentiation of rifampicin-induced antibacterial activity against Escherichia coli ATCC 25922 assessed as fold change in rifampicin MIC at 16 microg/ml in high concentration of Ca++ and Mg++ containing media by Mueller-Hinton broth based assay; type: functional; conditions: dose 16 µg/ml
Acinetobacter baumannii [14] = assay: Potentiation of rifampicin-induced antibacterial activity against Acinetobacter baumannii ATCC 17978 assessed as fold change in rifampicin MIC at 16 microg/ml in high concentration of Ca++ and Mg++ containing media by Mueller-Hinton broth based assay; type: functional; conditions: dose 16 µg/ml
Escherichia coli [15] = assay: Potentiation of rifampicin-induced antibacterial activity against Escherichia coli clinical isolate 94393 at 1/4 MIC in low salt containing media by Mueller-Hinton broth based assay; type: functional, organism-based
Escherichia coli [16] = assay: Potentiation of rifampicin-induced antibacterial activity against Escherichia coli ATCC 25922 assessed as rifampicin MIC at 2 to 8 microg/ml in high concentration of Ca++ and Mg++ containing media by Mueller-Hinton broth based assay; type: functional; conditions: dose 2-8 µg/ml
Acinetobacter baumannii [17] = assay: Potentiation of rifampicin-induced antibacterial activity against multidrug resistant Acinetobacter baumannii clinical isolate 92247 at 1/4 MIC in low salt containing media by Mueller-Hinton broth based assay; type: functional, organism-based
Acinetobacter baumannii [18] = assay: Potentiation of rifampicin-induced antibacterial activity against multidrug resistant Acinetobacter baumannii clinical isolate 110193 at 1/4 MIC in low salt containing media by Mueller-Hinton broth based assay; type: functional, organism-based
Escherichia coli [19] = assay: Potentiation of rifampicin-induced antibacterial activity against Escherichia coli […] assessed as rifampicin MIC at 16 microg/ml in high concentration of Ca++ and Mg++ containing media by Mueller-Hinton broth based assay; type: functional; conditions: dose 16 µg/ml
Escherichia coli [20] = assay: Potentiation of rifampicin-induced antibacterial activity against Escherichia coli […] assessed as fold change in rifampicin MIC at 2 to 8 microg/ml in high concentration of Ca++ and Mg++ containing media by Mueller-Hinton broth based assay; type: functional; conditions: dose 2-8 µg/ml
Escherichia coli [21] = assay: Potentiation of rifampicin-induced antibacterial activity against Escherichia coli ATCC 25922 assessed as fold change in rifampicin MIC at 2 to 8 microg/ml in high concentration of Ca++ and Mg++ containing media by Mueller-Hinton broth based assay; type: functional; conditions: dose 2-8 µg/ml
Acinetobacter baumannii [22] = assay: Potentiation of rifampicin-induced antibacterial activity against multidrug resistant Acinetobacter baumannii LAC-4 in low salt containing media by Mueller-Hinton broth based assay; type: functional, organism-based
Acinetobacter baumannii [23] = assay: Potentiation of rifampicin-induced antibacterial activity against Acinetobacter baumannii 92247 assessed as rifampicin MIC at 16 microg/ml in high concentration of Ca++ and Mg++ containing media by Mueller-Hinton broth based assay; type: functional; conditions: dose 16 µg/ml
Acinetobacter baumannii [24] = assay: Antibacterial activity against Acinetobacter baumannii ATCC 17978 in high concentration of Ca++ and Mg++ containing media by Mueller-Hinton broth based assay; type: functional
Acinetobacter baumannii [25] = assay: Potentiation of rifampicin-induced antibacterial activity against Acinetobacter baumannii ATCC 17978 assessed as fold change in rifampicin MIC at 2 to 8 microg/ml in high concentration of Ca++ and Mg++ containing media by Mueller-Hinton broth based assay; type: functional; conditions: dose 2-8 µg/ml
[26] = Cytotoxicity against HEK293 cells assessed as cell viability at 9 uM relative to control; type: toxicity, cell-based; conditions: human, read-out: Activity
Acinetobacter baumannii [27] = assay: Potentiation of rifampicin-induced antibacterial activity against Acinetobacter baumannii 92247 assessed as fold change in rifampicin MIC at 16 microg/ml in high concentration of Ca++ and Mg++ containing media by Mueller-Hinton broth based assay; type: functional; conditions: dose 16 µg/ml
Acinetobacter baumannii [28] = assay: Antibacterial activity against Acinetobacter baumannii 92247 in high concentration of Ca++ and Mg++ containing media by Mueller-Hinton broth based assay; type: functional
Acinetobacter baumannii [29] = assay: Potentiation of rifampicin-induced antibacterial activity against Acinetobacter baumannii ATCC 17978 assessed as rifampicin MIC at 16 microg/ml in high concentration of Ca++ and Mg++ containing media by Mueller-Hinton broth based assay; type: functional; conditions: dose 16 µg/ml
Escherichia coli [30] = assay: Potentiation of rifampicin-induced antibacterial activity against Escherichia coli […] assessed as fold change in rifampicin MIC at 16 microg/ml in high concentration of Ca++ and Mg++ containing media by Mueller-Hinton broth based assay; type: functional; conditions: dose 16 µg/ml
Acinetobacter baumannii [31] = assay: Potentiation of rifampicin-induced antibacterial activity against Acinetobacter baumannii ATCC 17978 assessed as rifampicin MIC at 2 to 8 microg/ml in high concentration of Ca++ and Mg++ containing media by Mueller-Hinton broth based assay; type: functional; conditions: dose 2-8 µg/ml
Escherichia coli [32] = assay: Potentiation of rifampicin-induced antibacterial activity against Escherichia coli clinical isolate 94474 at 1/4 MIC in low salt containing media by Mueller-Hinton broth based assay; type: functional, organism-based
Acinetobacter baumannii [33] = assay: Potentiation of rifampicin-induced antibacterial activity against multidrug resistant Acinetobacter baumannii AB031 at 1/4 MIC in low salt containing media by Mueller-Hinton broth based assay; type: functional, organism-based
[34] = Cytotoxicity against human HepG2 cells assessed as cell viability at 9 uM relative to control; type: toxicity, cell-based; conditions: read-out: Activity
Escherichia coli [35] = assay: Antibacterial activity against Escherichia coli ATCC 25922 in high concentration of Ca++ and Mg++ containing media by Mueller-Hinton broth based assay; type: functional
Escherichia coli [36] = assay: Potentiation of rifampicin-induced antibacterial activity against Escherichia coli ATCC 25922 assessed as rifampicin MIC at 16 microg/ml in high concentration of Ca++ and Mg++ containing media by Mueller-Hinton broth based assay; type: functional; conditions: dose 16 µg/ml
Acinetobacter baumannii [37] = assay: Potentiation of rifampicin-induced antibacterial activity against Acinetobacter baumannii 92247 assessed as fold change in rifampicin MIC at 2 to 8 microg/ml in high concentration of Ca++ and Mg++ containing media by Mueller-Hinton broth based assay; type: functional; conditions: dose 2-8 µg/ml
Acinetobacter baumannii [38] = assay: Potentiation of rifampicin-induced antibacterial activity against multidrug resistant Acinetobacter baumannii AB027 at 1/4 MIC in low salt containing media by Mueller-Hinton broth based assay; type: functional, organism-based
Escherichia coli [39] = assay: Potentiation of rifampicin-induced antibacterial activity against Escherichia coli clinical isolate 107115 at 1/4 MIC in low salt containing media by Mueller-Hinton broth based assay; type: functional, organism-based

SMILES | fold change (FC) (Pseudomonas aeruginosa [1]) | MIC (Pseudomonas aeruginosa [2]) [µg/mL] | fold change (FC) (Acinetobacter baumannii [3]) | MIC (Pseudomonas aeruginosa [4]) [µg/mL] | MIC (Escherichia coli [5]) [µg/mL] | MIC (Acinetobacter baumannii [6]) [µg/mL] | fold change (FC) (Escherichia coli [7]) | MIC (Escherichia coli [8]) [µg/mL] | MIC (Acinetobacter baumannii [9]) [µg/mL] | MIC (Acinetobacter baumannii [10]) [µg/mL] | MIC (Escherichia coli [11]) [µg/mL] | MIC (Escherichia coli [12]) [µg/mL] | fold change (FC) (Escherichia coli [13]) | fold change (FC) (Acinetobacter baumannii [14]) | MIC (Escherichia coli [16]) [µg/mL] | MIC (Escherichia coli [19]) [µg/mL] | fold change (FC) (Escherichia coli [20]) | fold change (FC) (Escherichia coli [21]) | MIC (Acinetobacter baumannii [23]) [µg/mL] | MIC (Acinetobacter baumannii [24]) [µg/mL] | also measured
CCCCCCCCO[C@@H]1O[C@H](CN)[C@H](N)[C@H](OCc2ccccc2)[C@H]1N | 1 | > 128 | 16 | 16 | 64 | > 128 | 16 | 16 | 16 | – | – | – | – | – | – | – | – | – | – | – | –
NC[C@H]1O[C@@H](OCCC23CC4CC(CC(C4)C2)C3)[C@H](N)[C@@H](OCc2ccc3ccccc3c2)[C@H]1N | 2 | 32 | >=256 | 8 | 8 | 16 | 16 | 2 | 4 | 2 | > 128 | 4 | 2 | 2 | 2 | 16 | 1 | 1 | 16 | > 128 | Activity (Escherichia coli [15]): Active; Activity (Acinetobacter baumannii [17]): inactive; Activity (Acinetobacter baumannii [18]): inactive; Activity (Acinetobacter baumannii [22]): inactive; fold change (FC) (Acinetobacter baumannii [25]): 1; viability at 9 µM [26]: 46.7%; fold change (FC) (Acinetobacter baumannii [27]): 64; MIC (Acinetobacter baumannii [28]): > 128 µg/mL; MIC (Acinetobacter baumannii [29]): 16 µg/mL; fold change (FC) (Escherichia coli [30]): 8; MIC (Acinetobacter baumannii [31]): 4 µg/mL; Activity (Escherichia coli [32]): inactive; Activity (Acinetobacter baumannii [33]): inactive; viability at 9 µM [34]: 76%; MIC (Escherichia coli [35]): > 128 µg/mL; MIC (Escherichia coli [36]): 16 µg/mL; fold change (FC) (Acinetobacter baumannii [37]): 2; Activity (Acinetobacter baumannii [38]): inactive; Activity (Escherichia coli [39]): inactive
CCCCCCCCO[C@H]1[C@@H](N)[C@@H](CN=[N+]=[N-])O[C@H](OCc2ccc3ccccc3c2)[C@@H]1N | 8 | 32 | >=256 | 8 | 8 | 16 | 64 | 2 | 4 | 4 | 128 (≈ 281 µM) | 2 | 16 | 4 | 2 | 16 | 1 | 1 | 16 | > 128 | fold change (FC) (Acinetobacter baumannii [25]): 2; viability at 9 µM [26]: 31.7%; fold change (FC) (Acinetobacter baumannii [27]): 64; MIC (Acinetobacter baumannii [28]): 128 µg/mL (≈ 281 µM); MIC (Acinetobacter baumannii [29]): 16 µg/mL; fold change (FC) (Escherichia coli [30]): 64; MIC (Acinetobacter baumannii [31]): 4 µg/mL; viability at 9 µM [34]: 46%; MIC (Escherichia coli [35]): 128 µg/mL (≈ 281 µM); MIC (Escherichia coli [36]): 16 µg/mL; fold change (FC) (Acinetobacter baumannii [37]): 4
